Experiments:
mouse model of psoriasis = test: Mouse model of psoriasis (Aldar cream, 5% imiquimod): ear thickness and clinical signs; format: in vivo, female Balb/c mice; settings: Compound 1 30 mg/kg, Neotigason 5 mg/kg, M ± m, n = 20; for The gain of the ear thickness at the determined day of study to day 0, Day 2 / The gain of the ear thickness at the determined day of study to day 0, Day 3 / The gain of the ear thickness at the determined day of study to day 0, Day 4 / The gain of the ear thickness at the determined day of study to day 0, Day 5 / The gain of the ear thickness at the determined day of study to day 0, Day 6: intragastric once daily; for Clinical signs of psoriasis, Erythema, Day 4 / Clinical signs of psoriasis, Flakes, Day 4 / Clinical signs of psoriasis, Thickening, Day 4 / Clinical signs of psoriasis, Erythema, Day 6 / Clinical signs of psoriasis, Flakes, Day 6 / Clinical signs of psoriasis, Thickening, Day 6: score 0-4 (Table 1)
Method: (§1) The induction of psoriasis in mice was carried out according to the standard procedure [European Journal of Pharmacology. 2015. V. 756. P. 43-51]. Aldar cream (5% imiquimod) was applied to female Balb/c mice on the inner side of the right ear once daily by 30 mg/mouse for 7 days (0-6th day). Vaseline was applied to the intact animals. […] Euthanasia was carried out 24 hours later (7th day) after the last application of the Aldar cream. Daily on the 0, 2nd, 3rd, 4th, 5th, 6th day, the thickness of the right ear was measured in the morning before the next application of the Aldar cream and before the euthanasia. After the euthanasia, blood was collected from the heart cavities, serum was isolated. The content of MCP1 was determined in blood serum by an enzyme-linked immunosorbent assay method, using test systems Mouse CCL2 (MCP-1) Uncoated ELISA Kit (Invitrogen).
2011. V. 88(1-2). P. 100-113].

[1] = test system: neutrophil and macrophage chemotaxis (carrageenan pouch); test: Macrophage and neutrophil chemotaxis model to the site of inflammation (carrageenan pouch) in mice; format: in vivo, female Balb/c mice
Method: The induction of macrophages and neutrophils chemotaxis to the site of inflammation (carrageenan pouch) in mice was tested according to the standard procedure [Curr Protoc Pharmacol. 2012. V. 5. P. 5-6]. […] After 3 days to maintain the integrity of the air pouch without increasing the wound, 2.5 ml of air was introduced at the same site. On day 6 under CO2 anesthesia to induce inflammation, 1 ml of 1% carrageenan solution prepared in physiological saline was administered directly into the pouch. The test compound was administered intragastrically 1 hour before the administration of carrageenan and then every 10-12 hours in the volume of 0.1 ml. The last administration is 12 hours before the slaughter. Euthanasia by the inhalation of CO2 was performed 48 hours after the carrageenan injection. Immediately after the euthanasia, 1 ml of physiological saline containing 5.4 mM of EDTA of room temperature was introduced into the pouch with a sterile syringe. After gentle massage of the region of the air pouch, a sagittal incision was made across the pouch and exudate was collected by a dispenser. After the centrifugation of the exudate from the cell pellet, smears were prepared, which were then fixed in methanol and were stained by Romanowsky-Giemsa. A quantity of macrophages and neutrophils was then determined on the smears under a microscope. The cell calculation was made up to 100 pcs.

[2] = test system: non-infectious pneumonia induced by cigarette smoke extract; test: Non-infectious pneumonia induced by cigarette smoke extract, lung histology; format: in vivo, male Balb/c mice; settings: 30 mg/kg intragastric daily day 7-27, 5-point scale; M ± m, n = 12
Method: The induction of non-infectious pneumonia in mice was carried out according to the standard procedure [Zhang Yl, Cao J, Chen Y, Chen P, Peng H, Cai S, Luo H, Wu SJ. […] Male Balb/c mice were intraperitoneally administered with cigarette smoke extract (CSE, 0.45 ml/20 mg) at 0, 11th, 15th, 17th, 19th and 22nd day. The CSE was prepared as follows: 5 cigarettes were burnt, using a vacuum pump, the smoke was filtered to remove particles and collected in a vessel containing a phosphate saline buffer. […] Euthanasia was carried out on the 28th day. The right lung lobe was fixed in 10% neutral formalin solution, passed through the alcohols of ascending concentrations to xylene, and embedded in paraffin by standard procedures. Deparaffinated 5-micron shears were stained with hematoxylin-eosin and the histological analysis was carried out.
Each lesion was evaluated according to a 5-point scale: 1 point—the inflammatory infiltrate occupies 0-20% of the area of the histological preparation under study, 2 point—the inflammatory infiltrate occupies 21-40% of the area of the histological preparation under study, 3 points—the inflammatory infiltrate occupies 41-60% of the area of the histological preparation under study, 4 points—the inflammatory infiltrate occupies 61-80% of the area of the histological preparation under study, 5 points—the inflammatory infiltrate occupies 81-100% of the area of the histological preparation under study. Alveolar destruction index (DI) as the percentage of the damaged alveoli relative to the total number of alveoli was also calculated.

[3] = test system: thermal pain irritation (hot plate); test: Thermal pain irritation model hot plate; format: in vivo, Balb/c mice
Method: The model of thermal pain irritation “hot plate” was carried out according to the standard procedure [Valdman A. V., Ignatov Y. D. Central mechanisms of pain. L.: Nauka, 1976]. The test compound was administered to Balb/c mice intragastrically, once. After 1, 4, 6, 12, 24 hours after the administration of the preparation, the “hot plate” test was carried out. To conduct the “hot plate” test, the mice were placed on the hot plate, the temperature (+55±1° C.) of which is constant. The time of first manifestations of the pain response in mice (paw licking, jumping) was registered and the mean latent time of the threshold of pain sensitivity (TPS, sec) in each group was calculated.

MCP-1 (CCL2) = test: MCP-1 level in blood serum of mice on the psoriasis model (ELISA); format: in vivo, female Balb/c mice; settings: day 7, 30 mg/kg intragastric, M ± m, n = 10
Method: as §1

[4] = test system: macrophage chemotaxis (thioglycolate peritonitis); test: Macrophage chemotaxis to the site of inflammation (thioglycolate peritonitis) in mice; format: in vivo, male Balb/c mice
Method: The induction of macrophage chemotaxis to the site of inflammation (thioglycolate peritonitis) in mice were performed according to the standard procedure [J Leukoc Biol. 2009. V. 86.(2). P. 361-370]. Male Balb/c mice were intraperitoneally administered with 2 ml of 3% thioglycolic medium stored for 1 month. The preparation of thioglycolic medium was carried out as follows: 15 g of dry thioglycolic medium was stirred in 500 ml of distilled water, was boiled at 100° C. for 2 minutes, was filtered through a paper filter, was poured out by 50 ml in sterile tubes and was sterilized by autoclaving at 121° C. for 15 minutes. […]
After 72 hours, the animals were euthanized in a CO2-chamber and the peritoneum area was wetted with 70% alcohol, the skin on the abdominal cavity was carefully cut off, and 5 ml of a cold phosphate-saline buffer containing 0.1% of ethylenediamine tetraacetic acid was injected intraperitoneally with a syringe. After gentle massage of the abdominal cavity, the exudate was collected by a syringe into tubes, and the volume of the collected exudate was determined.
Smears were prepared from the cell pellet, which smears were further fixed in methanol (5 minutes) and stained by Romanowsky-Giemsa (40 min at 20-22° C.). On the smears, under the microscope Olympus bx51 (at magnification 100) the quantity of monocytes/macrophages was counted by the routine method. […]

[5] = test system: acetic acid-induced abdominal constrictions; test: Specific pain reaction by chemical stimulation of peritoneum (abdominal constriction test); format: in vivo, Balb/c mice; settings: 30 mg/kg intragastric, M ± m, n = 12
Method: The model of the specific pain reaction by the method of chemical stimulation of peritoneum (“abdominal constriction” test) was carried out according to the standard procedure. To conduct the “abdominal constriction” test, Balb/c mice were intraperitoneally administered with 1% acetic acid in a volume of 10 ml per kg of the animal body weight. The test compound was administered intragastrically, once, 1 or 2 hour(s) before the administration of acetic acid. A quantity of constrictions (convulsive twitching of the abdominal muscles accompanied with stretching hind quarters and arching) was evaluated 15 minutes after the administration of acetic acid.

[6] = test system: non-infectious pneumonia induced by poly I:C; test: Non-infectious pneumonia induced by intranasal administration of poly I:C to mice (BAL neutrophils, lung histology); format: in vivo, female Balb/c mice
Method: The induction of pneumonia in mice was carried out according to the standard procedure [Eur Respir J. 2013 V. 41(5). […] Female Balb/c mice were intranasally administered with 8 μg/kg of polyinosine-polycytidylic acid (poly I:C) in 30 μl of PBS on days 1, 2, 3 and 4. Then at days 15, 16, 17 and 18, in the same volume 2 μg/kg of poly I:C were administered to the animals. […] All mice were sacrificed on the 19th day of the study. The bronchus from the right lung was pinched by the ligature, the left lung was washed 3 times with 0.8 ml of the sterile PBS. After each administration of PBS into the lung, the gentle massage of the lung was carried out, PBS was drained by gravity. Finally, the final volume of the resulting bronchoalveolar lavage (BAL) was considered and written. A number of neutrophils was evaluated in the BAL (using the Diff-Quik staining). For histological study, the right lung lobe was fixed in 10% neutral formalin solution and embedded in paraffin by the standard procedure. Deparaffinated 5-micron shears were stained with hematoxylin-eosin. Each lesion was evaluated according to a 5-point scale: 1 point—the inflammatory infiltrate occupies 0-20% of the area of the histological preparation under study, 2 point—the inflammatory infiltrate occupies 21-40% of the area of the histological preparation under study, 3 points—the inflammatory infiltrate occupies 41-60% of the area of the histological preparation under study, 4 points—the inflammatory infiltrate occupies 61-80% of the area of the histological preparation under study, 5 points—the inflammatory infiltrate occupies 81-100% of the area of the histological preparation under study. Alveolar destruction index (DI) as the percentage of the damaged alveoli relative to the total number of alveoli was also calculated.

[7] = 30 mg/kg intragastric, 48 hours after carrageenan, M ± m, n = 10
[8] = 30 mg/kg intragastric daily day 6-19, 5-point scale, M ± m, n = 7

COc1cc(C)c(/C=C/C(C)=C/C=C/C(C)=C/C(=O)O)c(C)c1C [Neotigason, reference compound]
The gain of the ear thickness at the determined day of study to day 0, Day 2 (mouse model of psoriasis): 14.2 ± 1.9*& %
The gain of the ear thickness at the determined day of study to day 0, Day 3 (mouse model of psoriasis): 27.5 ± 1.8*& %
The gain of the ear thickness at the determined day of study to day 0, Day 4 (mouse model of psoriasis): 45.9 ± 2.5*& %
Clinical signs of psoriasis, Erythema, Day 4 (mouse model of psoriasis): 1.2 ± 0.1*& points
Clinical signs of psoriasis, Flakes, Day 4 (mouse model of psoriasis): 0.0 ± 0.0& points
Clinical signs of psoriasis, Thickening, Day 4 (mouse model of psoriasis): 1.4 ± 0.1*& points
The gain of the ear thickness at the determined day of study to day 0, Day 5 (mouse model of psoriasis): 68.9 ± 1.8 %
The gain of the ear thickness at the determined day of study to day 0, Day 6 (mouse model of psoriasis): 83.1 ± 1.4 %
Clinical signs of psoriasis, Erythema, Day 6 (mouse model of psoriasis): 1.6 ± 0.1*& points
Clinical signs of psoriasis, Flakes, Day 6 (mouse model of psoriasis): 0 ± 0& points
Clinical signs of psoriasis, Thickening, Day 6 (mouse model of psoriasis): 1.3 ± 0.1*& points

O=C1CCCC(=O)N1CCc1cnc[nH]1 [Compound 1, 1-(2-(1H-imidazol-4-yl)ethyl)piperidine-2,6-dione]
Macrophages in the exudate from the carrageenan pouch [1, 7]: 0.6 ± 0.2 & ×10^9/l
Neutrophils in the exudate from the carrageenan pouch [1, 7]: 0.6 ± 0.1 & ×10^9/l
Quantity of neutrophils and macrophages in the pouch cavity ([1]; intragastric administration): to the level of intact animals
Interstitial pneumonia [2]: 1.08 ± 0.16& points
Peribronchitis [2]: 0.13 ± 0.07& points
Perivasculitis [2]: 1.03 ± 0.11& points
Increase of the threshold of pain sensitivity in the hot plate test ([3]; intragastric administration): 2 times
MCP-1 level in blood serum (MCP-1 (CCL2)): 113.7 ± 8.3 & pg/ml
Macrophages in peritoneal exudate ([4]; 30 mg/kg intragastric, 72 hours after thioglycolate): 0.84 ± 0.16 & ×10^9/l
Quantity of macrophages in the peritoneal exudate ([4]; intragastric administration): to the level of intact animals
Quantity of constrictions for 15 minutes ([5]; 1 hour before the administration of acetic acid): 23.8 ± 3.7
Quantity of constrictions for 15 minutes ([5]; 2 hour before the administration of acetic acid): 22.7 ± 2.6
The gain of the ear thickness at the determined day of study to day 0, Day 2 (mouse model of psoriasis): 7.8 ± 1.4& %
The gain of the ear thickness at the determined day of study to day 0, Day 3 (mouse model of psoriasis): 11.2 ± 1.9& %
The gain of the ear thickness at the determined day of study to day 0, Day 4 (mouse model of psoriasis): 33.8 ± 1.6& %
Clinical signs of psoriasis, Erythema, Day 4 (mouse model of psoriasis): 1.5 ± 0.1*& points
Clinical signs of psoriasis, Flakes, Day 4 (mouse model of psoriasis): 0.0 ± 0.0& points
Clinical signs of psoriasis, Thickening, Day 4 (mouse model of psoriasis): 0.9 ± 0.1*& points
The gain of the ear thickness at the determined day of study to day 0, Day 5 (mouse model of psoriasis): 46.9 ± 1.6*& %
The gain of the ear thickness at the determined day of study to day 0, Day 6 (mouse model of psoriasis): 55.8 ± 0.8*& %
Clinical signs of psoriasis, Erythema, Day 6 (mouse model of psoriasis): 1.3 ± 0.1*& points
Clinical signs of psoriasis, Flakes, Day 6 (mouse model of psoriasis): 0.1 ± 0.1& points
Clinical signs of psoriasis, Thickening, Day 6 (mouse model of psoriasis): 1.3 ± 0.1*& points
Interstitial pneumonia [6, 8]: 0.76 ± 0.1& points
Peribronchitis [6, 8]: 0.73 ± 0.32& points
Perivasculitis [6, 8]: 0.80 ± 0.31& points
Neutrophils in 1 μl Score (bronchoalveolar lavage) ([6]; 30 mg/kg intragastric daily day 6-19, M ± m, n = 7): 0.0 ± 0.0& in 1 μl
Influx of neutrophils into the bronchoalveolar space ([6]; intragastric administration): completely abolished

O=C(c1ccccc1)c1ccc2n1CCC2C(=O)O (centres unmarked) [Ketorol]
TPS, % to the values before the administration of the preparation, after 1 hours ([3]; 1 hour after single intragastric dose, Compound 1 30 mg/kg, Ketorol 15 mg/kg, M ± m, n = 12): 146.4 ± 16.6%
TPS, % to the values before the administration of the preparation, after 4 hours ([3]; 4 hours after single intragastric dose, Compound 1 30 mg/kg, Ketorol 15 mg/kg, M ± m, n = 12): 195.9 ± 30.0 %
TPS, % to the values before the administration of the preparation, after 6 hours ([3]; 6 hours after single intragastric dose, Compound 1 30 mg/kg, Ketorol 15 mg/kg, M ± m, n = 12): 176.6 ± 34.0%
TPS, % to the values before the administration of the preparation, after 12 hours ([3]; 12 hours after single intragastric dose, Compound 1 30 mg/kg, Ketorol 15 mg/kg, M ± m, n = 12): 166.5 ± 25.3%
TPS, % to the values before the administration of the preparation, after 24 hours ([3]; 24 hours after single intragastric dose, Compound 1 30 mg/kg, Ketorol 15 mg/kg, M ± m, n = 12): 159.7 ± 22.4%
